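The compound was tested at five concentrations on cells cultured in 96-well plates, with a 48-hour exposure period. Here, GI50 denotes the concentration required for 50% inhibition of growth.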 Calls of active or inactive are those of the source. Cut-off read from the data, not from the text of the source: active = GI50 up to about 1.1 µM and inactive = higher.
Assays:
Experiment in all cases: inhibition of tumour cell growth, NCI panel, 48 h
SK-OV-3 = system: SK-OV-3
ACHN = system: ACHN
NCI-H460 = system: NCI-H460
A498 = system: A498
Malme-3M = system: Malme-3M
IGROV-1 = system: IGROV-1
COLO 205 = system: COLO 205
NCI-H522 = system: NCI-H522
HCC 2998 = system: HCC 2998
SK-MEL-28 = system: SK-MEL-28
UACC-257 = system: UACC-257
OVCAR-4 = system: OVCAR-4
HCT-116 = system: HCT-116
SK-MEL-5 = system: SK-MEL-5
HOP-62 = system: HOP-62

Measured: GI50

O=C(O)[C@@H](NS(=O)(=O)c1ccc2ccccc2c1)c1ccccc1
inactive: SK-OV-3 > 100 µM | ACHN > 100 µM | NCI-H460 > 100 µM | A498 > 100 µM | Malme-3M > 100 µM | IGROV-1 > 100 µM | COLO 205 > 100 µM | NCI-H522 > 100 µM | HCC 2998 > 100 µM | SK-MEL-28 > 100 µM | UACC-257 > 100 µM | OVCAR-4 > 100 µM

CN1C(=O)N(C)C2(O)c3ccccc3C(=O)C12O (stereo unspecified)
inactive: SK-OV-3 > 100 µM | ACHN > 100 µM | NCI-H460 > 100 µM | HCT-116 > 100 µM | A498 > 100 µM | Malme-3M > 100 µM | IGROV-1 > 100 µM | SK-MEL-5 > 100 µM | COLO 205 > 100 µM | NCI-H522 > 100 µM | HCC 2998 > 100 µM | HOP-62 > 100 µM | SK-MEL-28 > 100 µM | UACC-257 > 100 µM | OVCAR-4 > 100 µM

CC(=O)Nc1ccc(/C=C/C(=O)c2sc(C(N)=S)nc2C)cc1
inactive: SK-OV-3 > 100 µM | NCI-H460 > 100 µM | A498 > 100 µM | Malme-3M > 100 µM | IGROV-1 > 100 µM | SK-MEL-5 > 100 µM | COLO 205 > 100 µM | NCI-H522 > 100 µM | HCC 2998 > 100 µM | HOP-62 > 100 µM | SK-MEL-28 > 100 µM | UACC-257 > 100 µM

Cc1ccc(S(=O)(=O)c2c(N)n(CCN(C)C)c3nc4ccccc4nc23)cc1
inactive: SK-OV-3 > 100 µM | ACHN > 100 µM | NCI-H460 > 100 µM | HCT-116 > 100 µM | Malme-3M > 100 µM | IGROV-1 > 100 µM | SK-MEL-5 > 100 µM | COLO 205 > 100 µM | NCI-H522 3.13 µM | HCC 2998 > 100 µM | SK-MEL-28 > 100 µM | UACC-257 71.9 µM | OVCAR-4 > 100 µM

CCOC(=O)c1sc2c(sc(=O)n2-c2ccccc2)c1O
inactive: SK-OV-3 > 100 µM | ACHN > 100 µM | NCI-H460 > 100 µM | HCT-116 > 100 µM | A498 > 100 µM | Malme-3M > 100 µM | IGROV-1 > 100 µM | SK-MEL-5 > 100 µM | COLO 205 45.3 µM | NCI-H522 > 100 µM | HCC 2998 > 100 µM | HOP-62 > 100 µM | SK-MEL-28 > 100 µM | UACC-257 > 100 µM | OVCAR-4 > 100 µM

N#CCCn1c(S)nnc1CCC(=O)Nc1ccc(Cl)cc1Cl
inactive: SK-OV-3 > 100 µM | ACHN > 100 µM | NCI-H460 > 100 µM | HCT-116 > 100 µM | A498 > 100 µM | Malme-3M > 100 µM | IGROV-1 > 100 µM | SK-MEL-5 > 100 µM | COLO 205 > 100 µM | NCI-H522 > 100 µM | HCC 2998 > 100 µM | HOP-62 > 100 µM | SK-MEL-28 > 100 µM | UACC-257 > 100 µM | OVCAR-4 > 100 µM

O=c1oc(=O)c2oc3ccccc3oc1=2
inactive: SK-OV-3 > 100 µM | ACHN > 100 µM | NCI-H460 > 100 µM | HCT-116 > 100 µM | A498 > 100 µM | Malme-3M > 100 µM | IGROV-1 > 100 µM | COLO 205 > 100 µM | NCI-H522 > 100 µM | HCC 2998 > 100 µM | HOP-62 > 100 µM | SK-MEL-28 > 100 µM | UACC-257 > 100 µM | OVCAR-4 > 100 µM

c1cnc2c(c1)-n1cccc1C1(CCCCC1)NN2
inactive: ACHN 88.3 µM | NCI-H460 61.5 µM | HCT-116 59.8 µM | Malme-3M 62.1 µM | SK-MEL-5 71.3 µM | COLO 205 > 100 µM | NCI-H522 63.1 µM | HCC 2998 > 100 µM | HOP-62 > 100 µM | SK-MEL-28 > 100 µM | UACC-257 48.4 µM | OVCAR-4 > 100 µM

O=C1/C(=C/c2ccc3c(c2)OCO3)SC2C=Nc3ccccc3N12 (stereo unspecified)
inactive: ACHN > 100 µM | NCI-H460 > 100 µM | HCT-116 > 100 µM | A498 > 100 µM | Malme-3M > 100 µM | IGROV-1 > 100 µM | SK-MEL-5 > 100 µM | COLO 205 > 100 µM | NCI-H522 > 100 µM | HCC 2998 > 100 µM | HOP-62 > 100 µM | SK-MEL-28 > 100 µM | UACC-257 > 100 µM | OVCAR-4 63.4 µM

COC(=O)C(CCC#N)(CCC#N)C(=O)OC
inactive: SK-OV-3 > 100 µM | ACHN > 100 µM | NCI-H460 > 100 µM | HCT-116 > 100 µM | Malme-3M > 100 µM | IGROV-1 > 100 µM | SK-MEL-5 > 100 µM | COLO 205 > 100 µM | NCI-H522 > 100 µM | HCC 2998 > 100 µM | HOP-62 > 100 µM | SK-MEL-28 > 100 µM | UACC-257 > 100 µM

CN1CCC23c4c5ccc(O)c4OC2C(=NN=C2CCC4(O)C6Cc7ccc(O)c8c7C4(CCN6C)C2O8)CCC3(O)C1C5 (stereo unspecified)
inactive: SK-OV-3 > 100 µM | ACHN > 100 µM | NCI-H460 > 100 µM | A498 > 100 µM | Malme-3M > 100 µM | IGROV-1 > 100 µM | SK-MEL-5 > 100 µM | COLO 205 > 100 µM | NCI-H522 > 100 µM | HCC 2998 > 100 µM | HOP-62 > 100 µM | SK-MEL-28 > 100 µM | UACC-257 > 100 µM | OVCAR-4 > 100 µM

O=C1/C(=C(\Nc2ccccc2)c2ccccc2)C=NN1c1ccccc1
inactive: SK-OV-3 > 100 µM | ACHN 61 µM | NCI-H460 96.4 µM | A498 > 100 µM | Malme-3M 59 µM | IGROV-1 > 100 µM | SK-MEL-5 26.7 µM | COLO 205 > 100 µM | NCI-H522 > 100 µM | HCC 2998 > 100 µM | SK-MEL-28 > 100 µM | UACC-257 > 100 µM | OVCAR-4 76.9 µM

OCC(O)C(OC1OC(CO)C(O)C(O)C1O)c1nn(-c2ccccc2)c2nc3cc(Cl)ccc3nc12 (stereo unspecified)
inactive: SK-OV-3 > 100 µM | ACHN > 100 µM | NCI-H460 > 100 µM | HCT-116 > 100 µM | A498 > 100 µM | Malme-3M > 100 µM | NCI-H522 > 100 µM | HCC 2998 > 100 µM | HOP-62 > 100 µM | SK-MEL-28 > 100 µM | UACC-257 > 100 µM | OVCAR-4 > 100 µM

C=CCNC(=O)NCCCC(NC(C)=O)C(=O)NCc1ccccc1 (stereo unspecified)
inactive: SK-OV-3 > 100 µM | ACHN > 100 µM | NCI-H460 > 100 µM | A498 > 100 µM | Malme-3M > 100 µM | IGROV-1 > 100 µM | SK-MEL-5 > 100 µM | COLO 205 > 100 µM | NCI-H522 > 100 µM | HOP-62 > 100 µM | SK-MEL-28 > 100 µM | UACC-257 > 100 µM | OVCAR-4 > 100 µM

Nc1c(-c2ccc(Cl)cc2Cl)[n+]([O-])c2ccccc2[n+]1[O-]
inactive: SK-OV-3 > 100 µM | ACHN > 100 µM | NCI-H460 > 100 µM | A498 > 100 µM | Malme-3M > 100 µM | IGROV-1 > 100 µM | SK-MEL-5 > 100 µM | COLO 205 > 100 µM | NCI-H522 37.4 µM | HCC 2998 > 100 µM | HOP-62 > 100 µM | SK-MEL-28 > 100 µM | UACC-257 > 100 µM | OVCAR-4 > 100 µM

Reference: ChEMBL document CHEMBL1201862, “PubChem BioAssay data set” (2004)
